Reference: ChEMBL document CHEMBL6109180, “De Novo-Designed APC/C Inhibitors Provide a Rationale for Targeting RING-Type E3 Ubiquitin Ligases” (J Med Chem, 2025)
Calls of active or inactive are those of the source. No cut-off for these calls is given here. Numbered stars: 1 amine (or outer) side, 2 acyl side, 3 side chain; on linkers, the order of the positions; unused ones are H or OH. Bridge positions count the residues as written; N and C are the ends. Square brackets hold non-standard residues; d marks the D form. Peptide text beside a SMILES is read from it. I, II: the chains in the order shown. X1 = O=C(O)CC[C@@H](C(=O)[*:2])N(CCOCCOCCOCCOCCOCCO[*:3])[*:1]; R8 = C=CCCCCCC[C@@](C)(N)C(=O)O; S5 = C=CCCC[C@](C)(N)C(=O)O; Pra = C#CC[C@H](N)C(=O)O; AEA = NCCOCC(=O)O

Tests used:
HeLa [1] = assay: Inhibition of recombinant APC/C/cdc20 (unknown origin) in metaphase-synchronized human HeLa cells co-expressing GST-tagged UBA1/UBE2C/methylated ubiquitin using cyclin B1 as substrate at 100 uM measured after 45 mins in presence of ATP by immuno-precipitation method
HeLa [2] = assay: (§1) Inhibition of recombinant APC/C/cdc20 (unknown origin) in metaphase-synchronized human HeLa cells co-expressing GST-tagged UBA1/UBE2S/methylated ubiquitin using cyclin B1 as substrate at 100 uM measured after 45 mins in presence of ATP by immuno-precipitation method; assay type: cell-based
HeLa [3] = assay: Inhibition of recombinant APC/C/cdc20 (unknown origin) in metaphase-synchronized human HeLa cells co-expressing GST-tagged UBA1/UBE2C/methylated ubiquitin using RD680-labeled securin as substrate at 25 uM measured after 45 mins in presence of ATP by immuno-precipitation method relative to control
HeLa [4] = assay: as §1, with “substrate assessed as decrease in UBE2S-driven chain elongation” for “substrate”; assay type: cell-based
TERT-RPE1 = assay: Effect on time length of mitosis in human RPE-1 cells at 50 uM measured for 10 to 24 hrs by bright field microscopy; assay type: functional, cell-based; details: time 10-24 hrs
[5] = Inhibition of recombinant APC/C/cdc20 (unknown origin) in metaphase-synchronized human HeLa cells co-expressing GST-tagged UBA1/UBE2C/methylated ubiquitin using RD680-labeled securin as substrate measured after 45 mins in presence of ATP by immuno-precipitation method
[6] = target: T1, Ubiquitin-conjugating enzyme E2 C (Homo sapiens) (UniProt O00762); assay: Inhibition of UBE2C (unknown origin) auto-ubiquitination at 100 uM measured after 45 mins in presence of UBA1/His6-ubiquitin/ATP by SDS-PAGE analysis
T1 sequence (whole entry): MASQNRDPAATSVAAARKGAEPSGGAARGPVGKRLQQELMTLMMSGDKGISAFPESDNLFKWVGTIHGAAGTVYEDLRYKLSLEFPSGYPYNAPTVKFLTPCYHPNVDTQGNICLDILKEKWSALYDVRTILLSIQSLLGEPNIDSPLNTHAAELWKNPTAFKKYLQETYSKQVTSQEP

[7] = Non-competitve inhibition of recombinant APC/C/cdc20 (unknown origin) in metaphase-synchronized human HeLa cells co-expressing GST-tagged UBA1/UBE2C/methylated ubiquitin using RD680-labeled securin as substrate measured after 45 mins in presence of ATP by immuno-precipitation method; assay type: cell-based
Homo sapiens = organism: Homo sapiens; assay: Potency index, ratio of Apcin IC50 to test compound IC50 for inhibition of APC/C (unknown origin)
HeLa [8] = assay: Inhibition of recombinant APC/C/cdc20 (unknown origin) in metaphase-synchronized human HeLa cells co-expressing GST-tagged UBA1/UBE2C/methylated ubiquitin using RD680-labeled securin as substrate at 100 uM measured after 45 mins in presence of ATP by immuno-precipitation method; assay type: cell-based
HeLa [9] = assay: Inhibition of recombinant APC/C/cdc20 (unknown origin) in metaphase-synchronized human HeLa cells co-expressing GST-tagged UBA1/UBE2D1/methylated ubiquitin using cyclin B1 as substrate at 100 uM measured after 45 mins in presence of ATP by immuno-precipitation method
SW480 = assay: Effect on time length of mitosis in human SW480 cells at 50 uM incubated for 10 to 24 hrs by live cell microscopy; assay type: functional, cell-based; details: time 10-24 hrs
HT-1080 = assay: Induction of mitotic arrest in human HT-1080 cells assessed as cells in prolongation at 50 uM measured up to 213 mins by time-lapse imaging analysis relative to control; assay type: functional; details: 3.55 h
HeLa [10] = assay: Induction of mitotic arrest in human HeLa cells assessed as time length at 50 uM measured up to 213 mins by time-lapse imaging analysis; assay type: functional; details: 3.55 h
HeLa [11] = assay: Induction of mitotic arrest in human HeLa cells assessed as cells in prolongation at 50 uM measured up to 213 mins by time-lapse imaging analysis relative to control; assay type: functional; details: 3.55 h
RKO = assay: Induction of mitotic arrest in human RKO cells assessed as cells in prolongation at 50 uM measured up to 213 mins by time-lapse imaging analysis relative to control; assay type: functional; details: 3.55 h
MDA-MB-231 = assay: Effect on time length of mitosis in human MDA-MB-231 cells at 50 uM incubated for 10 to 24 hrs by live cell microscopy; assay type: functional, cell-based; details: time 10-24 hrs
HeLa [12] = assay: Induction of mitotic arrest in human HeLa cells assessed as prolongation in metaphase at 50 uM measured up to 213 mins by time-lapse imaging analysis; assay type: functional, cell-based
A549 = assay: Induction of mitotic arrest in human A549 cells assessed as cells in prolongation at 50 uM measured up to 213 mins by time-lapse imaging analysis relative to control; assay type: functional; details: 3.55 h
[13] = target: Baculoviral IAP repeat-containing protein 2 (Homo sapiens) (UniProt Q13490); assay: Binding affinity to c-IAP1 in asynchronously growing human HeLa cells incubated for 30 mins by pull down assay; assay type: cell-based
[14] = target: Anaphase-promoting complex subunit 11 (Homo sapiens) (UniProt Q9NYG5); assay: Binding affinity to APC11 in asynchronously growing human HeLa cells incubated for 30 mins by pull down assay; assay type: cell-based
[15] = target: E3 ubiquitin-protein ligase RBX1 (Homo sapiens) (UniProt P62877); assay: Binding affinity to RBX1 in asynchronously growing human HeLa cells incubated for 30 mins by pull down assay; assay type: cell-based
[16] = target: T2, Polycomb complex protein BMI-1 (Homo sapiens) (UniProt P35226); assay: Binding affinity to BMI1 in asynchronously growing human HeLa cells incubated for 30 mins by pull down assay; assay type: cell-based
T2 sequence (whole entry): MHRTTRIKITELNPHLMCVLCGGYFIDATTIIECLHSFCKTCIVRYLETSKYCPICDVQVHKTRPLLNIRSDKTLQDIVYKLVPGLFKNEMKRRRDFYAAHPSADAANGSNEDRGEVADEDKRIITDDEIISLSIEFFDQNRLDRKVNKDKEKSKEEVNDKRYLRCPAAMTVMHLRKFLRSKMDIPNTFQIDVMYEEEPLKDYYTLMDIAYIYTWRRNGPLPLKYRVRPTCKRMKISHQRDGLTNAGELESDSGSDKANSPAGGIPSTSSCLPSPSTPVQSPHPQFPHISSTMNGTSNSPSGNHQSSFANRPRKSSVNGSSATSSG

[17] = target: E3 ubiquitin-protein ligase Mdm2 (Homo sapiens) (UniProt Q00987); assay: Binding affinity to MDM2 in asynchronously growing human HeLa cells incubated for 30 mins by pull down assay; assay type: cell-based
[18] = target: E3 ubiquitin-protein ligase CBL (Homo sapiens) (UniProt P22681); assay: Binding affinity to c-CBL in asynchronously growing human HeLa cells incubated for 30 mins by pull down assay; assay type: cell-based
[19] = target: Breast cancer type 1 susceptibility protein (Homo sapiens) (UniProt P38398); assay: Binding affinity to BRCA1 in asynchronously growing human HeLa cells incubated for 30 mins by pull down assay; assay type: cell-based
[20] = Drug localization in nucleoplasm of human HeLa cells at 50 uM incubated for 10 hrs by AF488 dye based analysis; assay type: ADME, subcellular
[21] = Drug localization in nucleus of human HeLa cells at 50 uM incubated for 4 to 10 hrs by AF488 dye based analysis; assay type: ADME, subcellular; details: time 4-10 hrs
HeLa [22] = assay: Induction of mitosis prolongation in human HeLa cells assessed as time taken at 50 uM measured for 10 to 48 hrs by live cell imaging analysis; assay type: functional; details: time 10-48 hrs
[23] = Drug localization in cytoplasm of human HeLa cells at 50 uM incubated for 10 hrs by AF488 dye based analysis; assay type: ADME, subcellular
[24] = target: Anaphase-promoting complex subunit 11 (Homo sapiens) (UniProt Q9NYG5); assay: Binding affinity to APC11 in asynchronous human HeLa cells incubated for 2 hrs by pull down assay; assay type: cell-based
HeLa [25] = assay: Binding affinity to APC2 in asynchronous human HeLa cells incubated for 2 hrs by pull down assay; assay type: cell-based

Chain of Anaphase-promoting complex subunit 11 (Homo sapiens) (Q9NYG5 whole entry, one chain of several): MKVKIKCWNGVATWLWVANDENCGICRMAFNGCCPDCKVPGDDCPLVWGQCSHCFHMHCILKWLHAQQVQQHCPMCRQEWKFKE
Chain of Baculoviral IAP repeat-containing protein 2 (Homo sapiens) (Q13490 whole entry): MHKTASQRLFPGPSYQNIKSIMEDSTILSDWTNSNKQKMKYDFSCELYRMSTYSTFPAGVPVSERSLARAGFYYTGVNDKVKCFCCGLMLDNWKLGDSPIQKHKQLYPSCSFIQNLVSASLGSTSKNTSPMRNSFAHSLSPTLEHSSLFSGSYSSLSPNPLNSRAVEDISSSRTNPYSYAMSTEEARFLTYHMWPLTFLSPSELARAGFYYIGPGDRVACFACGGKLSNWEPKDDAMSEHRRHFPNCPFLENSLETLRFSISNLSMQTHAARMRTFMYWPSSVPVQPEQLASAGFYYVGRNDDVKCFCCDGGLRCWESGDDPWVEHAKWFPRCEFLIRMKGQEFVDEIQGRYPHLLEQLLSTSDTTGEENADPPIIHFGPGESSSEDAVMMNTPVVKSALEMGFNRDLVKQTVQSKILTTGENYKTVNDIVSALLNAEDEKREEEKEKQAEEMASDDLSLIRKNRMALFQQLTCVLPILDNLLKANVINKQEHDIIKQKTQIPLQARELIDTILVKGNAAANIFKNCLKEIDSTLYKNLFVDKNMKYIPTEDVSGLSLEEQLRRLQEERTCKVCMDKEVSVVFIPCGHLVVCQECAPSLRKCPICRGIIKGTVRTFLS
Chain of E3 ubiquitin-protein ligase RBX1 (Homo sapiens) (P62877 whole entry, looked up): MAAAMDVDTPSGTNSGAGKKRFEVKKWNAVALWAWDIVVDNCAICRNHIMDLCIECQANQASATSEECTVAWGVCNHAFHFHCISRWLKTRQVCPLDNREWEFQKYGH
Chain of Breast cancer type 1 susceptibility protein (Homo sapiens) (P38398 whole entry, looked up): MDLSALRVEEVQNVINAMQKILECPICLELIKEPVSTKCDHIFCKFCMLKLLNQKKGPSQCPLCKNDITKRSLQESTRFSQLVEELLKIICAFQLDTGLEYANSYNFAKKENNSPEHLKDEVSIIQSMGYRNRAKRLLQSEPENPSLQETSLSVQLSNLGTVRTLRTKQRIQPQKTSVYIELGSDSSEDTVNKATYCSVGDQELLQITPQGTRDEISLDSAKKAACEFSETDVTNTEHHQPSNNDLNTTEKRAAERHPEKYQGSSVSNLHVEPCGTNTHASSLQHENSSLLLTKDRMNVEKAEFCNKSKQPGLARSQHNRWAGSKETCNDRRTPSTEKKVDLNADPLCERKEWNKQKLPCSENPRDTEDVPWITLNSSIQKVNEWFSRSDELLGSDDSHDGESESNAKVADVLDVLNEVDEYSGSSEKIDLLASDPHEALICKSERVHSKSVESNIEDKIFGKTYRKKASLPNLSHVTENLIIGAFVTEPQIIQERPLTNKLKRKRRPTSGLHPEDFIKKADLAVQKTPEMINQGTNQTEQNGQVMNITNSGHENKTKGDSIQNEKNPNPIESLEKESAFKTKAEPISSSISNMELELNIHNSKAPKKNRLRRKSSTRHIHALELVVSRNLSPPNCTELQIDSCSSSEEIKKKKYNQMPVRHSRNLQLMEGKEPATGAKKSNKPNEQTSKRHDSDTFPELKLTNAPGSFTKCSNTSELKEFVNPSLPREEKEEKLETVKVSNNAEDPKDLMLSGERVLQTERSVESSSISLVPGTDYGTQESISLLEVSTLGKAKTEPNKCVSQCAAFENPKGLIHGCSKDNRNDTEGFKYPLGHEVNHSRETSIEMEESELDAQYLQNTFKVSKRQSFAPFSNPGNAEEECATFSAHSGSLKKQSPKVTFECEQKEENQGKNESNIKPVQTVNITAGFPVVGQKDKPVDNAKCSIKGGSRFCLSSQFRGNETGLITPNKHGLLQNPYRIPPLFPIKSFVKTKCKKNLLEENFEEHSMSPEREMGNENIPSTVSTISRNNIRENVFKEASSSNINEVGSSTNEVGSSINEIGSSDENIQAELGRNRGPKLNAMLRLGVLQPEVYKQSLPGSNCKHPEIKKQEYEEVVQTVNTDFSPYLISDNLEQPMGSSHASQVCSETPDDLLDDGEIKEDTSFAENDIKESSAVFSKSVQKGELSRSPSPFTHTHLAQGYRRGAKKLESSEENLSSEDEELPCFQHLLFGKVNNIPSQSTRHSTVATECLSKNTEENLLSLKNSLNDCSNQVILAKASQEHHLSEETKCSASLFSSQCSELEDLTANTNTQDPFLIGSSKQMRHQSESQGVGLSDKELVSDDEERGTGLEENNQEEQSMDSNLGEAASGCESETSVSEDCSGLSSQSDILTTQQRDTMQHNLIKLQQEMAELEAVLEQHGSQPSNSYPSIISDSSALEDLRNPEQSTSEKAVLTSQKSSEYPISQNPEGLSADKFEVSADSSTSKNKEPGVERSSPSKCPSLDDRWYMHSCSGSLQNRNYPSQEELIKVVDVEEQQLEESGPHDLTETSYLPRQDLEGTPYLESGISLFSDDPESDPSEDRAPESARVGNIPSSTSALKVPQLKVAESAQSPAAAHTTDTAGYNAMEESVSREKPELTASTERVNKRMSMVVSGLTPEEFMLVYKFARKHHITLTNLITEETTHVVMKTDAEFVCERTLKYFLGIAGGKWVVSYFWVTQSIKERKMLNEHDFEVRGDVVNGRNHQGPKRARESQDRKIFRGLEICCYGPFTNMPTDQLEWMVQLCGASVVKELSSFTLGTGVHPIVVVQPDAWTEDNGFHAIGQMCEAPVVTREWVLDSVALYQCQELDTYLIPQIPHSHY
Chain of E3 ubiquitin-protein ligase Mdm2 (Homo sapiens) (Q00987 whole entry, looked up): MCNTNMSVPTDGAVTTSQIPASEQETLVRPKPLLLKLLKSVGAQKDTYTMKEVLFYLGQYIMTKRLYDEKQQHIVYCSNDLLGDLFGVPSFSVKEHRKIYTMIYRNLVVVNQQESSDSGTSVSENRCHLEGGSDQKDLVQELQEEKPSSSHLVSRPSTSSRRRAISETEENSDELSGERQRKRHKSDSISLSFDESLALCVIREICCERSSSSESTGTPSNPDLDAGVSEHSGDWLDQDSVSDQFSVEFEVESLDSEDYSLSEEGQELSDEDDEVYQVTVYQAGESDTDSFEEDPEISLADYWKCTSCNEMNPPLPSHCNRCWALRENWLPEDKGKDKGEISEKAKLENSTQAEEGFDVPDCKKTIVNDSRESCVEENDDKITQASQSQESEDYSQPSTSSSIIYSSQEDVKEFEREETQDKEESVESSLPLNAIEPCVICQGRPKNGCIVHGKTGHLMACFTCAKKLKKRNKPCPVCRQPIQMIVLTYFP

For CC[C@H](C)[C@@H]1NC(=O)[C@H](CCC(=O)O)NC(=O)[C@H](CCCCN)NC(=O)[C@H]([C@@H](C)CC)NC(=O)[C@](C)(NC(=O)[C@H](Cc2c[nH]c3ccccc23)NC(=O)[C@H](Cc2c[nH]c3ccccc23)NC(=O)[C@H](CCC(=O)O)NC(C)=O)CCCCCC/C=C\CCC[C@@](C)(C(=O)N[C@@H](CCCNC(=N)N)C(=O)N[C@@H](CCCNC(=N)N)C(=O)N[C@@H](C)C(N)=O)NC(=O)[C@H](CCCNC(=N)N)NC(=O)[C@H](CCC(N)=O)NC1=O (Ac-EWW[R8]IKEIQR[S5]RRA-NH2; staple (Z) 4-11), the inhibition (HeLa [1]) was “Active”, the inhibition (HeLa [2]) was “Active” and the inhibition (HeLa [3]) was > 80%. For the same compound, the inhibition (HeLa [4]) was 100%, the Activity (TERT-RPE1) was “No effect” and the IC50 [5] was 1.96 µM. For the same compound, the inhibition [6] was “inactive”, the Ki [7] was 5.03 µM and the Ratio IC50 (Homo sapiens) was 4.5. For the same compound, the inhibition (HeLa [8]) was “Active; Compound Exerted Better Inhibitory Effect Than Tame” and the inhibition (HeLa [9]) was “Active”.

For CC[C@H](C)[C@@H]1NC(=O)[C@H](CCC(=O)O)NC(=O)[C@H](CCCCN)NC(=O)[C@H]([C@@H](C)CC)NC(=O)[C@](C)(NC(=O)[C@H](Cc2c[nH]c3ccccc23)NC(=O)[C@H](Cc2c[nH]c3ccccc23)NC(=O)[C@H](CCC(=O)O)NC(=O)COCCNC(=O)CNC(=O)[C@H](Cc2ccccc2)NC(=O)[C@H](Cc2c[nH]c3ccccc23)NC(=O)[C@H](Cc2ccccc2)NC(=O)CNC(C)=O)CCCCCC/C=C\CCC[C@@](C)(C(=O)N[C@@H](CCCNC(=N)N)C(=O)N[C@@H](CCCNC(=N)N)C(=O)N[C@@H](C)C(N)=O)NC(=O)[C@H](CCCNC(=N)N)NC(=O)[C@H](CCC(N)=O)NC1=O (Ac-GFWFG[AEA]EWW[R8]IKEIQR[S5]RRA-NH2; staple (Z) 10-17), the Activity (SW480) was “No effect”, the Activity (HT-1080) was 75% and the Time (HeLa [10]) was “<=2 hr”. The Activity (HeLa [11]) was 75%, the Activity (RKO) was 75% and the Activity (MDA-MB-231) was “No effect”. For the same compound, the Activity (HeLa [12]) was “Active” and the Activity (A549) was 75%.

For C#CC[C@H](NC(C)=O)C(=O)N[C@@H](CCCNC(=N)N)C(=O)N[C@H]1CSSC[C@@H](C(=O)N[C@@H](CCCNC(=N)N)C(N)=O)NC(=O)[C@H](Cc2c[nH]c3ccccc23)NC(=O)[C@H](Cc2ccccc2)NC(=O)[C@H]([C@@H](C)O)NC(=O)[C@H](CCCNC(=N)N)NC(=O)[C@@H]2CCCN2C(=O)CNC(=O)[C@H](Cc2c[nH]c3ccccc23)NC(=O)[C@H](Cc2cnc[nH]2)NC1=O (Ac-[Pra]RCHWGPRTFWCR-NH2; disulfide 3-12), the Activity [13] was “inactive”, the Activity [14] was “Active” and the Activity [15] was “inactive”. The Activity [16] was “inactive”, the Activity [17] was “Active” and the Activity [18] was “Active”. The Activity [19] was “inactive”.

With C#CC[C@H](NC(=O)[C@H](Cc1c[nH]c2ccccc12)NC(=O)[C@H](CCC(=O)O)NCCOCCOCCOCCOCCOCCOC(=O)CNC(=O)[C@H](Cc1ccccc1)NC(=O)[C@H](Cc1c[nH]c2ccccc12)NC(=O)[C@H](Cc1ccccc1)NC(=O)CNC(C)=O)C(=O)N[C@]1(C)CCCCCC/C=C\CCC[C@@](C)(C(=O)N[C@@H](CCCNC(=N)N)C(=O)N[C@@H](CCCNC(=N)N)C(=O)N[C@@H](C)C(N)=O)NC(=O)[C@H](CCCNC(=N)N)NC(=O)[C@H](CCC(N)=O)NC(=O)[C@H]([C@@H](C)CC)NC(=O)[C@H](CCC(=O)O)NC(=O)[C@H](CCCCN)NC(=O)[C@H]([C@@H](C)CC)NC1=O (I: H-[X1]W[Pra][R8]IKEIQR[S5]RRA-NH2 / II: Ac-GFWFG; ester I:1-II:C; staple (Z) I:4-I:11) the Drug uptake [20] was “Active”, the Drug uptake [21] was “Active” and the Time (HeLa [22]) was ~74 min. The Drug uptake [23] was “Active”, the Activity [24] was “inactive” and the Activity (HeLa [25]) was “inactive”.
